Measured values: PMC4856737 (Bioorganic & medicinal chemistry letters, 2016)

Columns and labels:
[1] = system: M. Tb. H37Rv (ATCC 27294); assay: M. Tb. H37Rv dose-response assay; format: cell-based; settings: Mycobacterium tuberculosis, ATCC27294|H37RV
M. Tb. H37Rv = assay: Minimum bactericidal concentration; format: cell-based, Mycobacterium tuberculosis
in vitro = settings: mouse, % of cellular viability, High conc

Compound	IC50 [1]	MBC (M. Tb. H37Rv; NA: colony counts above the established rejection value ≥ 40, TNTC: too numerous to count)	viability (in vitro)	bactericidal classification (M. Tb. H37Rv; ratio MBC/MIC ≤ 4)
Cc1c(C(=O)/C=C/c2ccccc2)[n+]([O-])c2cc(Cl)ccc2[n+]1[O-] [Compound 3]	500 to 1500 nM	–	–	–
O=C(c1ccco1)c1c(C(F)(F)F)[n+]([O-])c2cc(Cl)c(N3CCOCC3)cc2[n+]1[O-] [Compound 16]	500 to 1500 nM	TNTC	26%	–
COC(=O)c1c(C(F)(F)F)[n+]([O-])c2ccc(N3CCN(c4ccc(F)cc4)CC3)cc2[n+]1[O-] [Compound 21]	–	–	–	bactericidal
CC(=O)c1c(C(F)(F)F)nc2cc(F)c(N3CCSCC3)cc2[n+]1[O-] [Compound 24]	500 to 1500 nM	–	–	–
